For the assay, the target named is EcThrRS (Escherichia coli, UniProt P0A8M3). As to the kind of experiment: tRNA aminoacylation assay, initial rates, dose-response fit. Type of assay: biochemical.

By IC50 is commonly meant the concentration that gives 50% inhibition. Low values mean greater potency in that assay, high ones weaker potency in that assay.

Chain of EcThrRS (P0A8M3 whole entry): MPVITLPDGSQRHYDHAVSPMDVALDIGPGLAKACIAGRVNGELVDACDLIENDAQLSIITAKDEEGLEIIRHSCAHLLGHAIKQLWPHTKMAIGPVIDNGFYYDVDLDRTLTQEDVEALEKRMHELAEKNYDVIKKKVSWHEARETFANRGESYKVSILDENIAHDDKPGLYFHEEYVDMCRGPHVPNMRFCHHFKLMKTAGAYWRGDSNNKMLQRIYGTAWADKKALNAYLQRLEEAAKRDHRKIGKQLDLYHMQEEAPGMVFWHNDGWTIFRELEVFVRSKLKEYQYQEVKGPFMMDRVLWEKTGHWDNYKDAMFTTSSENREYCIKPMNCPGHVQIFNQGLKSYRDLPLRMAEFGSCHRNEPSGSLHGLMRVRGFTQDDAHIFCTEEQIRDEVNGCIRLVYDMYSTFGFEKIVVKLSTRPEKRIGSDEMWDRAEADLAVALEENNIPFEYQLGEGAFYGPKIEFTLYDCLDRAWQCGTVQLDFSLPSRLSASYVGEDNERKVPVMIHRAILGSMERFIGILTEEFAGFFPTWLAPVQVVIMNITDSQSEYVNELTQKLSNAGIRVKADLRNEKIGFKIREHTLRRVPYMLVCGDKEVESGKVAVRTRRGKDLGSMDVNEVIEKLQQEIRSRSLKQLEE

The compound `O=C(N[C@@H]1C(=O)O[C@@H]1Cc1ccc([N+](=O)[O-])cc1)c1cccc(O)c1O` [compound 1, obafluorin] displayed an IC50 of 0.092 ± 0.021 µM.

Source of the values: article doi:10.1101/704981v1 (biorxiv, 2019).
